The results in this text go back to patent US8710233B2 (Gruenenthal GmbH, priority 2005, dated 2014).

Broadly, the inhibition is the change of the read-out against control, counted positive when it falls. The Ki is a dissociation constant, usually derived from enzyme kinetics or from competition with a known ligand. For orientation: melting point means the temperature of the solid-liquid transition. In general, IC50 refers to the concentration needed to halve the response being measured.

The structures appear in SMILES notation. Values joined by “and” are separate entries in the source; they are usually repeats but may differ in a detail not shown here. Identical values can stand only once. Like-named read-outs stand apart in the source and are kept apart here.

Data set [1] deals with formaldehyde induced nociceptive behaviour. Kind of data set: Formaldehyde test in mice, second (late) phase. Type of data set: in vivo, mouse. To be noted: mouse, read-out: inhibition formaldehyde test (n = 10); for inhibition in vivo at 0.3 mg/kg: 0.3 mg/kg body weight po.
Data set [2] concerns capsaicin induced hypothermie. Kind of data set: Hypothermie assay in the mouse (capsaicin induced hypothermie). The data set is classed as in vivo. Particulars: as printed in this column, read-out: inhibition hypothermie (n = 5).
Data set [3] addresses T1, vanilloid receptor 1 (VR1/TRPV1) of the rat species (Rattus norvegicus, UniProt O35433).
T1 construct: The spinal column is removed from decapitated rats; from tissue; host or cells: primary cells dissociated from rat dorsal root ganglia
Kind of data set: FLIPR Ca2+ influx assay on rat dorsal root ganglia cells (pharmacological method I). Particulars: for inhibition at 1 µM / inhibition in percent, Ki (rat) Cap.: ne = no effect, @ 1 μM. Type of data set: cell-based. In short, it runs like this:
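Primary rat dorsal root ganglion cells loaded with 2 μM Fluo-4, Ca2+ influx read on FLIPR as peak fluorescence. Triplicates, at least 3 independent experiments.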

For data set [4], the target named is T2, vanilloid receptor (VR1) (Homo sapiens, UniProt Q8NER1).
T2 construct: expressed in transfected cells; host or cells: CHO K1 cells (ECACC), stably transfected
T2 sequence (Q8NER1 whole entry): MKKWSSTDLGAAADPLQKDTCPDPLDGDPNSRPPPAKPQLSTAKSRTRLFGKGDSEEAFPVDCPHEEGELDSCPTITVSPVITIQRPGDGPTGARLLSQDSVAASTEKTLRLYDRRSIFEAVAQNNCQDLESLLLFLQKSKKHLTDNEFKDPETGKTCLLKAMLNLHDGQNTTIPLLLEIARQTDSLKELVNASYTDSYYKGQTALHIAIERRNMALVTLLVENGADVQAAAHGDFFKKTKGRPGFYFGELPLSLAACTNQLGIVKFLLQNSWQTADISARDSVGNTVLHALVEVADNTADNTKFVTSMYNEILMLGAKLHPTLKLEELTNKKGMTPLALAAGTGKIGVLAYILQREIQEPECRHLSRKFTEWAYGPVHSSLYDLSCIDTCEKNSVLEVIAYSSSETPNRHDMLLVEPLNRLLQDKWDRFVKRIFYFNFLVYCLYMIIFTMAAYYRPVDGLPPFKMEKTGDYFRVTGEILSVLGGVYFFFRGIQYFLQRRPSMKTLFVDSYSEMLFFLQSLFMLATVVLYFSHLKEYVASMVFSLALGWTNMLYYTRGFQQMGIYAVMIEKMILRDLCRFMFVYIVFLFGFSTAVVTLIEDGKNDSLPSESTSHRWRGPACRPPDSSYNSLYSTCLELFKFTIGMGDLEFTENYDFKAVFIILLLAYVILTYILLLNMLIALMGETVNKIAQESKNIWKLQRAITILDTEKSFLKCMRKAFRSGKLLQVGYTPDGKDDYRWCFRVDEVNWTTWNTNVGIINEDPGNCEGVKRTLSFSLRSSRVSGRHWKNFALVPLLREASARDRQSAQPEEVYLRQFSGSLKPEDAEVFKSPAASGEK
Kind of data set: FLIPR Ca2+ influx assay on CHO K1 cells transfected with the VR1 gene (pharmacological method II). The data set is classed as cell-based. To be noted: for inhibition at 1 µM / inhibition in percent, Ki (human) Cap.: ne = no effect, @ 1 μM.

Data set [5] deals with T2, vanilloid receptor (VR1). The description is as above. The data set is classed as cell-based.
For a further data set, the target named is VR1/TRPV1 receptor (Homo sapiens, UniProt Q8NER1). Kind of data set: IC50 (human) after pH stimulus. The data set is classed as cell-based. Particulars: for inhibition at 10 µM / inhibition at 25 µM: read-out: inhibition in percent, IC50 (human) after pH stimulus.
Chain of VR1/TRPV1 receptor (Q8NER1 whole entry): as above
Data set [6] relates to cold allodynia after chronic constriction injury. Kind of data set: Neuropathic pain in mice, Bennet model (chronic constriction injury, cold allodynia). The data set is classed as in vivo. To be noted: mouse. The text has this:
VI. Neuropathic Pain in Mice
The efficacy of compounds of general formula I in the treatment of neuropathic pain is investigated by using the Bennet modell (chronic constriction injury; Bennett and Xie, 1988, Pain 33: 87-107.
NMRI mice (weight 16 to 18 g) under ketavet-rompun anaesthesia are supplied with three loose ligatures of the right nervus ischiaticus. The animals develop an oversensitivity to cold at the position of the pad that is innervated by the injured nerve which—after a recovery period of one week—is quantified over a period of three weeks by using a metal plate that is cooled to 4° C. (cold allodynia). The animals are observed for a period of 2 minutes on this plate and the number of brisk withdrawal reactions of the injured nerve is counted. […] The group size is n=10, the stastical significance of efficacy against allodynia (*=p<0.05) is determined by analysis of variance with repeated measurements and post hoc analysis with Bonferroni adjustment.

In data set [7] the test system is capsaicin induced hypothermie. Kind of data set: Hypothermie assay in the mouse (capsaicin induced hypothermie). To be noted: 0.3 mg/kg body weight po; mouse; read-out: inhibition hypothermie (n = 5). Type of data set: in vivo.
[8] abbreviates: read-out: inhibition in percent, Ki (rat) Cap.
[9] abbreviates: CHO-K1, read-out: inhibition in percent, Ki (human) Cap.
Setting [10] is: Table 2, displacement of capsaicin (100 nM), Cheng-Prusoff, read-out: Ki (rat).
Setting [11] is: Table 2, displacement of capsaicin (100 nM), Cheng-Prusoff, read-out: Ki (human).
Setting [12] is: table 4, capsaicin, read-out: Ki (human) Cap.
[13] abbreviates: table 4, capsaicin, read-out: Ki (rat) Cap.

T1 sequence (O35433 whole entry): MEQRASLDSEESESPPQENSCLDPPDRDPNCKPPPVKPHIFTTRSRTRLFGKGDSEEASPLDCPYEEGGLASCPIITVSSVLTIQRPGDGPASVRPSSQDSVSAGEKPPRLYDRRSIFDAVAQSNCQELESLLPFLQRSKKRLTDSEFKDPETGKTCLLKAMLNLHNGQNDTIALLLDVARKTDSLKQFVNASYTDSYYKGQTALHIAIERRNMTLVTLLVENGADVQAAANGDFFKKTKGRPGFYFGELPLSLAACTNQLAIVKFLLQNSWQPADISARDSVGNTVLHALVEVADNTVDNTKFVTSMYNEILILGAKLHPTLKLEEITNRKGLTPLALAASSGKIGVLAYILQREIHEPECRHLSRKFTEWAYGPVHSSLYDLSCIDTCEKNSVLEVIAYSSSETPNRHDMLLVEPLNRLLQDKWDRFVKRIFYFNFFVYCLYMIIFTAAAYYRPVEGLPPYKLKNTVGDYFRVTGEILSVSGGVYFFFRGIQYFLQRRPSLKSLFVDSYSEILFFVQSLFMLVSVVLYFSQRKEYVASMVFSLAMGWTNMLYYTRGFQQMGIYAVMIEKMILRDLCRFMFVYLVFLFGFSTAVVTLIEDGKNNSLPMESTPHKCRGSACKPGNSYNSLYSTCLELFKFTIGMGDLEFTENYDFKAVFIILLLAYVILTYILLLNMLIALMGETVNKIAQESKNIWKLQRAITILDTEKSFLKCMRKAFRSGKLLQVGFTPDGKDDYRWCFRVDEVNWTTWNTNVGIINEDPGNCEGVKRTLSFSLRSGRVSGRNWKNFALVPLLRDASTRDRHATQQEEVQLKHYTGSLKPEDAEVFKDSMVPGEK

In the case of `CC(C(=O)NCc1ccc(C(C)(C)C)cc1OCC(C)(C)C)c1ccc(NS(C)(=O)=O)c(F)c1` (centres unmarked) [Compound 152], the inhibition in vivo at 1 mg/kg in data set [1] (1 mg/kg body weight po) is 24%. Further, in data set [2] (@ 1 μM), the inhibition at 1 µM was determined as 45%.

In the case of `CC(C(=O)NCc1ccc(C(F)(F)F)nc1N1CCC(N2CCCCC2)CC1)c1ccc(NS(C)(=O)=O)c(F)c1` (centres unmarked) [Compound 164], the inhibition at 1 µM in [3] (setting [8]) is 1.5%; at vanilloid receptor (VR1) [4] (setting [9]), 20%.

As for `CC(C(=O)NCc1ccc(C(F)(F)F)nc1N1CCN(c2ccncc2)CC1)c1ccc(NS(C)(=O)=O)c(F)c1` (centres unmarked) [Compound 176], the inhibition at 1 µM in [3] (setting [8]) was found to be 8%; at vanilloid receptor (VR1) [4] (setting [9]), 7.2%.

In the case of `Cc1nc(C(F)(F)F)ccc1CNC(=O)C(C)c1ccc(NS(C)(=O)=O)c(F)c1` (centres unmarked) [Example 1, 2-(3-fluoro-4-(methylsulfonamido)phenyl)-N-((2-methyl-6-(trifluoromethyl)pyridin-3-yl)methyl)propanamide], the melting point was in the range of 149 to 152 °C. In data set [3] (setting [10]), the Ki was 684 nM. Moreover, at vanilloid receptor (VR1) [5] (setting [11]), the Ki turned out to be 387 nM.

In turn, `CC(C(=O)NCc1ccc(C(F)(F)F)nc1N1CCCCC1)c1ccc(NS(C)(=O)=O)c(F)c1` (centres unmarked) [Example 2, 2-(3-fluoro-4-(methylsulfonamido)phenyl)-N-((2-(piperidin-1-yl)-6-(trifluoromethyl)pyridin-3-yl)methyl)propanamide] displayed a melting point of 75 to 79 °C. Further, the Ki in data set [3] (setting [10]) was 3.5 nM. The Ki at vanilloid receptor (VR1) [5] (setting [11]) amounted to 0.4 nM. This molecule came in with an IC50 against VR1/TRPV1 receptor (Table 2) of 218 nM.

`CC(C(=O)NCc1ccc(C(F)(F)F)cc1N1CCCCC1)c1ccc(NS(C)(=O)=O)c(F)c1` (centres unmarked) [Example 3] yielded a melting point of 126 to 127 °C. Also, the Ki in data set [3] (setting [10]) amounted to 2.6 nM. The Ki on vanilloid receptor (VR1) [5] (setting [11]) turned out to be 1.7 nM. Besides, 135 nM corresponded to half-maximal inhibition at VR1/TRPV1 receptor (Table 2) (IC50).

With `C[C@H](C(=O)NCc1ccc(C(F)(F)F)nc1N1CCCCC1)c1ccc(NS(C)(=O)=O)c(F)c1` [Example 10, (S)-2-(3-fluoro-4-(methylsulfonamido)phenyl)-N-((2-(piperidin-1-yl)-6-(trifluoromethyl)pyridin-3-yl)methyl)propanamide], the melting point lay within 75 to 79 °C. Moreover, in data set [3] (setting [10]), the Ki came out at 1.1 nM. Also, the Ki on vanilloid receptor (VR1) [5] (setting [11]) was determined as 0.3 nM. Besides, on VR1/TRPV1 receptor (Table 2), inhibition was half-maximal at 64 nM (IC50).

Regarding `CC(C(=O)NCc1ccc(C(F)(F)F)cc1N)c1ccc(NS(C)(=O)=O)c(F)c1` (centres unmarked) [Example 61, N-(2-amino-4-(trifluoromethyl)benzyl)-2-(3-fluoro-4-(methylsulfonamido)-phenyl)propanamide], the “inhibition in percent, Ki (rat) Cap.” value in data set [3] is listed as “ne @ 1 μM”. Also, the inhibition at 10 µM at VR1/TRPV1 receptor (@ 10 μM) came out at 47%. In addition, the “inhibition in percent, Ki (human) Cap.” value at vanilloid receptor (VR1) [4] was “ne @ 1 μM”.

In the case of `CC(C(=O)NCc1ccc(C(F)(F)F)cc1[N+](=O)[O-])c1ccc(NS(C)(=O)=O)c(F)c1` (centres unmarked) [Example 62, 2-(3-fluoro-4-(methylsulfonamido)phenyl)-N-(2-nitro-4-(trifluoromethyl)-benzyl)propanamide], the “inhibition in percent, Ki (rat) Cap.” value in data set [3] is listed as “ne @ 1 μM”. Moreover, the “inhibition in percent, IC50 (human) after pH stimulus” value (shortened to “inhibition in percent, IC50 (human)”) against VR1/TRPV1 receptor (@ 1 μM, ne = no effect) is “ne @ 1 μM”. Also, on vanilloid receptor (VR1) [4], the “inhibition in percent, Ki (human) Cap.” value is on record as “ne @ 1 μM”.

Take `CC(C(=O)NCc1ncc(C(F)(F)F)cc1N1CCCC1)c1ccc(NS(C)(=O)=O)c(F)c1` (centres unmarked) [Example 78, 2-(3-Fluor-4-(methylsulfonamido)phenyl)-N-((3-(pyrrolidin-1-yl)-5-(trifluoromethyl)pyridin-2-yl)methyl)propanamide]: in data set [3], the “inhibition in percent, Ki (rat) Cap.” value is given as 19% @ 1 μM. In addition, at VR1/TRPV1 receptor (@ 10 μM), the “inhibition in percent, IC50 (human)” value was found to be 36% @ 10 μM. The “inhibition in percent, Ki (human) Cap.” value at vanilloid receptor (VR1) [4] is reported as 15% @ 1 μM.

For the molecule `CCCCCCOc1nc(C(F)(F)F)ccc1CNC(=O)C(C)c1ccc(NS(C)(=O)=O)c(F)c1` (centres unmarked) [Example 91, 2-(3-fluoro-4-methylsulfonamido-phenyl)-N-(2-hexyloxy-6-trifluoromethyl-pyridin-3-ylmethyl)-propionamide], the Ki is 0.5 nM in data set [3] (Ki (rat) Cap., table 4, capsaicin) and 0.5 nM at vanilloid receptor (VR1) [5] (setting [12]). On VR1/TRPV1 receptor (table 4), this molecule returned an IC50 of 29.9 nM. Besides, the “inhibition Bennet model (n = 10)” value in data set [6] (0.1 mg/kg body weight po) stood at 0.1 po 30%.

On to `CC(C(=O)NCc1ccc(C(F)(F)F)nc1N1CCC(Cc2ccccc2)CC1)c1ccc(NS(C)(=O)=O)c(F)c1` (centres unmarked) [Example 104, N-(4-benzyl-6′-trifluoromethyl-3,4,5,6-tetrahydro-2H-[1,2′]bipyridinyl-3′-ylmethyl)-2-(3-fluoro-4-methylsulfonamido-phenyl)-propionamide], for which the Ki (in data set [3] (setting [13]); at vanilloid receptor (VR1) [5] (setting [12])) was 0.2 nM in each case. The molecule further had an IC50 against VR1/TRPV1 receptor (table 4) of 40 nM. Further, the “inhibition Bennet model (n = 10)” value in [6] (0.0001 mg/kg body weight po) was 0.0001 po 20%.

In the case of `CC(C(=O)NCc1ccc(C(F)(F)F)nc1Nc1ccc(F)cc1)c1ccc(NS(C)(=O)=O)c(F)c1` (centres unmarked) [Example 112, 2-(3-fluoro-4-methylsulfonamido-phenyl)-N-[2-(4-fluoro-phenylamino)-6-trifluoromethyl-pyridin-3-ylmethyl]-propionamide], the Ki was 31.8 nM and 236 nM in data set [3] (setting [13]); 39.2 nM at vanilloid receptor (VR1) [5] (setting [12]). In addition, the “inhibition in percent, IC50 (human)” value at VR1/TRPV1 receptor (@ 10 μM) was determined as 64% @ 10 μM. Also, the inhibition at 25 µM at VR1/TRPV1 receptor worked out at 67%. Moreover, the inhibition at 1 µM at vanilloid receptor (VR1) [4] (setting [9]) stood at 15%.

Consider `CC(C(=O)NCc1ccc(C(C)(C)C)cc1OCC(C)(C)C)c1ccc(NS(C)(=O)=O)c(F)c1` (centres unmarked) [Example 152, N-[4-tert-butyl-2-(2,2-dimethyl-propoxy)-benzyl]-2-(3-fluoro-4-methylsulfonamido-phenyl)-propionamide], for which the Ki in data set [3] (setting [13]) was 2.2 nM; on vanilloid receptor (VR1) [5] (setting [12]) it was 3.8 nM. The inhibition in vivo at 0.3 mg/kg in data set [1] worked out at 33%. The inhibition at 10 µM in [2] (@ 10 μM) came out at 63%.

`CC(C(=O)NCc1ccc(C(F)(F)F)nc1N1CCC(N2CCCC2)CC1)c1ccc(NS(C)(=O)=O)c(F)c1` (centres unmarked) [Example 165, 2-(3-fluoro-4-methylsulfonamido-phenyl)-N-(4-pyrrolidin-1-yl-6′-trifluoromethyl-3,4,5,6-tetrahydro-2H-[1,2′]bipyridinyl-3′-ylmethyl)-propionamide]: the inhibition at 25 µM is 82% in data set [3] (@ 25 μM, read-out: inhibition in percent, Ki (rat) Cap.); 40% on VR1/TRPV1 receptor; 76% at vanilloid receptor (VR1) [4] (CHO-K1, @ 25 μM, read-out: inhibition in percent, Ki (human) Cap.). In addition, the inhibition at 10 µM at VR1/TRPV1 receptor (@ 10 μM) was determined as 28%. Further, the inhibition in vivo at 0.3 mg/kg in data set [7] is 41%; in [1], 29%.

Take `CC(C(=O)NCc1c(CO)cc(C(C)(C)C)nc1OCc1ccccc1)c1ccc(NS(C)(=O)=O)c(F)c1` (centres unmarked) [Example 223, N-(2-benzyloxy-6-tert-butyl-4-hydroxymethyl-pyridin-3-ylmethyl)-2-(3-fluoro-4-methylsulfonamido-phenyl)-propionamide]: the inhibition at 1 µM in data set [3] (setting [8]) was found to be 53%; on vanilloid receptor (VR1) [4] (setting [9]), 38%. The “inhibition in percent, IC50 (human)” value against VR1/TRPV1 receptor (@ 1 μM, ne = no effect) is “ne @ 1 μM”.

`CC(C(=O)NCc1ccc(C(F)(F)F)nc1N1CCC(O)CC1)c1ccc(NS(C)(=O)=O)c(F)c1` (centres unmarked) [Example 269, 2-(3-fluoro-4-methylsulfonamido-phenyl)-N-(4-hydroxy-6′-trifluoromethyl-3,4,5,6-tetrahydro-2H-[1,2′]bipyridinyl-3′-ylmethyl)-propionamide]: the “inhibition in percent, Ki (rat) Cap.” value in [3] is “ne @ 1 μM”. For the same molecule, the “inhibition in percent, IC50 (human)” value against VR1/TRPV1 receptor (@ 1 μM, ne = no effect) is recorded as “ne @ 1 μM”. Further, the “inhibition in percent, Ki (human) Cap.” value on vanilloid receptor (VR1) [4] is recorded as “ne @ 1 μM”.
